Biological target: T1, Hepatic Lipase (Homo sapiens, UniProt P11150)
T1 sequence (P11150 23-499): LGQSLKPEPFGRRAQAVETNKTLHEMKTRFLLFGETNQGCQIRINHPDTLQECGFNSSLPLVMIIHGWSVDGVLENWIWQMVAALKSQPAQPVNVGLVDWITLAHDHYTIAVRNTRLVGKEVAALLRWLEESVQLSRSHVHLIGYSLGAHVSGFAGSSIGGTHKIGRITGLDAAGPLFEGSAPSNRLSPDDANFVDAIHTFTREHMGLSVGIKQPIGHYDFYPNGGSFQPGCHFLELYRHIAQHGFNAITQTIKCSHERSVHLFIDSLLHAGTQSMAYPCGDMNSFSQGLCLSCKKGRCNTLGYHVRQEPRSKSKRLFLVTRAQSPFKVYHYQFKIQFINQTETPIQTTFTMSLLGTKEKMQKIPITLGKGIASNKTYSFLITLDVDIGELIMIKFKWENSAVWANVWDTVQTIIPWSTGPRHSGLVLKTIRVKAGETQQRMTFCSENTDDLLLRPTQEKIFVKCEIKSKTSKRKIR
Assay: Hydrolysis of thioPEG and thioPC substrates by Hepatic Lipase (papain thiol detection system, FIG. 1)
Format: biochemical
Conditions: 0.5 mM thioPEG (enzyme diluted 100-5000 fold), 1.0 mM thioPC (enzyme diluted 1-64 fold)
Method: Hepatic Lipase enzyme was diluted 1, 32 or 64 fold for thioPC and 100, 500, 1000 or 5000 fold for thioPEG. Hydrolysis was measured by the papain thiol detection system (discussed below). […] Data curve I represents 0.5 mM thioPEG and Data Curve II represents 1.0 mM thioPC.
The invention also has the additional advantage of requiring fewer incubation periods in order to obtain detectable color. For example as shown in Scheme D below, thioPC substrate requires a reaction coupled with an enzymatic detection process for the liberated thiol-lysophospholipid which has two additional incubation periods in the papain system. L-BAPNA is an abbreviation for N-benzoyl-L-arginine, p-nitroanilide, hydrochloride.
In Scheme E, below, thioPC is combined with hepatic lipase and incubated for about 30 minutes yielding a free-thiol lysophospholipid. […] Activated papain-SH enzyme is combined with a coloring agent, L-BAPNA, and incubated for 60 minutes yielding a colored product, p-nitro aniline. ThioPEG substrate is an improvement since it requires only a single incubation period to yield detectable color. [drawing 12]

Row | Compound | hydrolysis of substrate by Hepatic Lipase (Optical Density at 410 nM vs Relative Enzyme Concentration)
1 | CCCCCCCCCC(=O)O[C@@H](COP(=O)(O)OCCO)CSC(=O)CCCCCCCCC [thioPEG, (1-Decanoylthio-1-deoxy-2-decanoyl-sn-glycero-3-phosphoryl) ethylene glycol] | hydrolyzed much faster than thioPC
2 | didecanoyl-thio-phosphatidylcholine [thioPC] | much more slowly
